Laboratory results from patent publication US9284276B2, “N-ethyl-N-phenyl-1,2-dihydro-4,5-di-hydroxy-1-methyl-2-oxo-3-quinolinecarboxamide, preparation and uses thereof” (TEVA PHARMACEUTICAL INDUSTRIES, LTD., priority 2012, dated 2016).
Values belong to the compound of their own block, whether it stands above or below them.

Experiments:
[1] = tested on: active MRI lesions in relapsing MS; settings: Polman et al. 2005; cited from earlier work
[2] = Formation of 5-HLAQ on light exposure of laquinimod, determined by HPLC; type: physicochemical
Method: Various forms of laquinimod were exposed to light, as specified below. Presence of 5-HLAQ was determined using HPLC.

[3] = tested on: acute experimental autoimmune encephalomyelitis (aEAE) model; settings: U.S. Pat. No. 6,077,851; cited from earlier work
[4] = Influence of blister pack material on photo-degradation of laquinimod 0.6 mg capsules; type: physicochemical
Method: The goal of this study is to examine the photo-degradation of laquinimod sodium capsules, 0.6 mg, packed in blisters of various materials.
One batch of laquinimod sodium capsules, 0.6 mg/capsule was packed into four different types of blisters: PVC/AC/PVDC/PVLE/P058 504 142 (transparent), PVC/PE-EVOH/AC (A 300) G03 140 MM (transparent), A-/PVC/PE-EVOH/AC-PC (opaque), and KPMAX WH (opaque). Control was the same batch not exposed to sunlight in HDPE 50 cc DUMA™ bottle.

[5] = in vivo; cited from earlier work
[6] = Stability of 5-HLAQ in solvents; type: physicochemical; settings: in most of the organic solvents as well as in aqueous acidic conditions
Excerpt: N-Ethyl-N-phenyl-1,2-dihydro-4,5-di-hydroxy-1-methyl-2-oxo-3-quinolinecarboxamide (5-HLAQ) is not stable in most of the organic solvents as well as in aqueous acidic conditions. Therefore common purification methods were extremely difficult. The di-acetate derivative Compound 3 is an elegant way to purify the material followed only by basic hydrolysis, acidic precipitation and rapid filtration.

- Presence of 5-HLAQ (wt %) ([2]; Light chamber 310-400 nm (~8 hrs.), 0.05 mg/ml in 0.02M HCl): 1.5 wt %
- Presence of 5-HLAQ (wt %) ([2]; Light chamber 310-400 nm (~8 hrs.), 0.05 mg/ml in 0.02M NaOH): 71 wt %
- Presence of 5-HLAQ (wt %) ([2]; Light chamber 310-400 nm (~8 hrs.), 1 mg/ml in 0.02M NaOH, relative to laquinimod before photodegradation): 33 wt %
- Presence of 5-HLAQ (wt %) ([2]; Sunlight cabinet (5 minutes), 0.09 mg/ml aqueous solution): 11.8 wt %
- Sensitivity to light [4]: sensitive to light
Structure (SMILES): CCN(C(=O)c1c(O)c2c(Cl)cccc2n(C)c1=O)c1ccccc1 [Laquinimod, N-ethyl-N-phenyl-1,2-dihydro-4-hydroxy-5-chloro-1-methyl-2-oxoquinoline-3-carboxamide]
- Development of active MRI lesions [1]: can reduce development of active MRI lesions
- Efficacy in aEAE model [3]: effective

Structure (SMILES): CCN(C(=O)c1c(O)c2c(Cl)cccc2n(C)c1=O)c1ccccc1 [Laquinimod sodium]
- Oral bioavailability [5]: high

- Stability in solvents [6]: not stable
Structure (SMILES): CCN(C(=O)c1c(O)c2c(O)cccc2n(C)c1=O)c1ccccc1 [Compound 5-HLAQ, N-Ethyl-N-phenyl-1,2-dihydro-4,5-di-hydroxy-1-methyl-2-oxo-3-quinolinecarboxamide]
